In patent publication US20230391868A1, “COMPOSITIONS FOR AND METHODS OF TREATING CANCER” (The George Washington University, priority 2022, published 2023):

Tested on: B16 melanoma cells
Test: Cd47 mRNA upon IFNγ stimulation in B16 cells
Format: cell-based, mouse
Conditions: IFNγ for 12 hours
Procedure: qRT-PCR: Total RNA was extracted from cells using the Trizol reagent according to manufacturer's instructions (ThermoFisher Scientific, 15596018). Samples were then processed immediately or stored at −80° C. RNA was quantified using a NanoDrop One Spectrophotometer (ThermoFisher Scientific). The 260/280 ratios were routinely over 1.8. Sample cDNA was produced using the iScript cDNA synthesis kit (Bio-Rad, 1708891). Target mRNA was quantified using MyIQ single-color real-time PCR detection system from Bio-Rad (Bio-Rad, Hercules, CA) and iQ SYBR green Supermix (Bio-Rad, 1708882). The following primers were synthesized by Invitrogen (Waltham, MA) with sequences designed by Origene (Rockville, MD): mouse R-actin (MP200232), mouse Nos2 (MP208933), mouse MRC1 (MP207800), human R-actin (HP204660), human IL-1β (HP200544), human MRC1 (HP206121), human NOS2 (HP200591), human CD209 (HP214086), mouse SIRPα (MP215450), mouse LRP1 (MP207604), human LRP1 (HP206040), mouse MFGE8 (MP208190), human MFGE8 (HP225757), mouse CD36 (MP201923), human CD36 (HP200058), and mouse CD47 (MP201932). Primers for mouse ARG-1 (PPM31770C) and human SIRPα (QT01031051) were purchased from Qiagen (Hilden, Germany). […] Quantification is expressed in arbitrary units and target mRNA levels were normalized to R-actin expression.
Although the mechanism by which IFNγ drives CD47 upregulation is unclear, IFNγ expression correlates to CD47 expression in skin cutaneous melanoma (Ye Z H, et al. (2021) Transl. Oncol. 14:101162). The kinetics of Cd47 mRNA in SM1 and B16 cells upon IFNγ stimulation (100 ng/mL) were evaluated and these mouse melanoma models were determined to have different kinetics (FIG. 9A-FIG. 9B). It was determined that 12 hours was a time point for both models to sustain the IFNγ-mediated upregulation. In FIG. 9B, the role of HDAC6 inhibitors NextA and Tubastatin A in abrogating Cd47 upregulation upon stimulation with IFNγ for 12 hours was evaluated.

CCCCN(Cc1ccc(C(=O)NO)cc1)C(=O)Nc1ccccc1 [NextA, Nexturastat A]
IFNγ-driven Cd47 upregulation at the transcriptional level: repressed these effects
